Data from PubChem BioAssay AID2060619 (Molecular Pharmacology Branch, DTP, NCI, 2025).

Tested on: 323965-272-R-J2-PDC complex spheroid viability
Assay: Anticancer human tumor 323965-272-R-J2-PDC patient-derived pancreatic carcinoma cell line growth inhibition [CLK]
Conditions: for IC50: curve of first compound; for viability, T/C: stronger effect = lower value
In short: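 Patient-derived tumor cells grown as complex spheroids with HUVEC endothelial cells and mesenchymal stem cells, treated with drug combinations. Concentrations descend in half-log steps from near clinical Cmax, or from 10 microM if Cmax unknown.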

[1] = second compound 0.0316 µM, first compound 0.0316 µM
[2] = second compound 0.0316 µM, first compound 0.1 µM
[3] = second compound 0.0316 µM, first compound 0.316 µM
[4] = second compound 0.0316 µM, first compound 1 µM
[5] = second compound 0.0316 µM, first compound 3.16 µM
[6] = second compound 0.0316 µM, first compound 10 µM
[7] = second compound 0.1 µM, first compound 0.0316 µM
[8] = second compound 0.1 µM, first compound 0.1 µM
[9] = second compound 0.1 µM, first compound 0.316 µM
[10] = second compound 0.1 µM, first compound 1 µM
[11] = second compound 0.1 µM, first compound 3.16 µM
[12] = second compound 0.1 µM, first compound 10 µM
[13] = second compound 0.316 µM, first compound 0.0316 µM
[14] = second compound 0.316 µM, first compound 0.1 µM
[15] = second compound 0.316 µM, first compound 0.316 µM
[16] = second compound 0.316 µM, first compound 1 µM
[17] = second compound 0.316 µM, first compound 3.16 µM
[18] = second compound 0.316 µM, first compound 10 µM
[19] = second compound 1 µM, first compound 0.0316 µM
[20] = second compound 1 µM, first compound 0.1 µM
[21] = second compound 1 µM, first compound 0.316 µM
[22] = second compound 1 µM, first compound 1 µM
[23] = second compound 1 µM, first compound 3.16 µM
[24] = second compound 1 µM, first compound 10 µM
[25] = second compound 3.16 µM, first compound 0.0316 µM
[26] = second compound 3.16 µM, first compound 0.1 µM
[27] = second compound 3.16 µM, first compound 0.316 µM
[28] = second compound 3.16 µM, first compound 1 µM
[29] = second compound 3.16 µM, first compound 3.16 µM
[30] = second compound 3.16 µM, first compound 10 µM
[31] = second compound 10 µM, first compound 0.0316 µM
[32] = second compound 10 µM, first compound 0.1 µM
[33] = second compound 10 µM, first compound 0.316 µM
[34] = second compound 10 µM, first compound 1 µM
[35] = second compound 10 µM, first compound 3.16 µM
[36] = second compound 10 µM, first compound 10 µM
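Further: spheroids exposed to agents for seven days before readout.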
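Wherever viability, T/C is given: percent of DMSO vehicle control wells so 100% = untreated growth.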

Work on `NC(=O)C(=Cn1cnc(-c2cc(C(F)(F)F)cc(C(F)(F)F)c2)n1)c1cncnc1` + CNC(=O)c1ccc(Nc2nc(OC3CCCC3)c3c(-c4ccc5nc(C)oc5c4)c[nH]c3n2)c(OC)c1 yielded an IC50 (second compound 0.0316 µM) of 1070 nM, an IC50 (second compound 0.1 µM) of 1270 nM and an IC50 (second compound 0.316 µM) of 655 nM. The IC50 (second compound 1 µM) was 53.9 nM, the IC50 (second compound 3.16 µM) was < 9.49 nM and the IC50 (second compound 10 µM) was < 9.49 nM. It also gave a viability, T/C (second compound 0.0316 µM, first compound 0.00949 µM) of 112%, a viability, T/C (second compound 0.0316 µM, first compound 0.03 µM) of 88.8% and a viability, T/C (second compound 0.0316 µM, first compound 0.0949 µM) of 75.1%. It also gave a viability, T/C (second compound 0.0316 µM, first compound 0.3 µM) of 66.7%, a viability, T/C (second compound 0.0316 µM, first compound 0.949 µM) of 62.1% and a viability, T/C (second compound 0.0316 µM, first compound 3 µM) of 30.9%. The viability, T/C (second compound 0.1 µM, first compound 0.00949 µM) was 86.6%, the viability, T/C (second compound 0.1 µM, first compound 0.03 µM) was 89% and the viability, T/C (second compound 0.1 µM, first compound 0.0949 µM) was 70.9%. The viability, T/C (second compound 0.1 µM, first compound 0.3 µM) was 68.6%, the viability, T/C (second compound 0.1 µM, first compound 0.949 µM) was 59.6% and the viability, T/C (second compound 0.1 µM, first compound 3 µM) was 32.5%. It also gave a viability, T/C (second compound 0.316 µM, first compound 0.00949 µM) of 65.8%, a viability, T/C (second compound 0.316 µM, first compound 0.03 µM) of 67.9% and a viability, T/C (second compound 0.316 µM, first compound 0.0949 µM) of 64.7%. It also gave a viability, T/C (second compound 0.316 µM, first compound 0.3 µM) of 59.9%, a viability, T/C (second compound 0.316 µM, first compound 0.949 µM) of 45.3% and a viability, T/C (second compound 0.316 µM, first compound 3 µM) of 25.5%. For the same molecule, the viability, T/C (second compound 1 µM, first compound 0.00949 µM) was 50.9%, the viability, T/C (second compound 1 µM, first compound 0.03 µM) was 56.4% and the viability, T/C (second compound 1 µM, first compound 0.0949 µM) was 45.1%. It also gave a viability, T/C (second compound 1 µM, first compound 0.3 µM) of 42.8%, a viability, T/C (second compound 1 µM, first compound 0.949 µM) of 30.6% and a viability, T/C (second compound 1 µM, first compound 3 µM) of 13.1%. For the same molecule, the viability, T/C (second compound 3.16 µM, first compound 0.00949 µM) was 46%, the viability, T/C (second compound 3.16 µM, first compound 0.03 µM) was 51.4% and the viability, T/C (second compound 3.16 µM, first compound 0.0949 µM) was 37.1%. The viability, T/C (second compound 3.16 µM, first compound 0.3 µM) was 38.9%, the viability, T/C (second compound 3.16 µM, first compound 0.949 µM) was 33% and the viability, T/C (second compound 3.16 µM, first compound 3 µM) was 16.6%. For the same molecule, the viability, T/C (second compound 10 µM, first compound 0.00949 µM) was 45.1%, the viability, T/C (second compound 10 µM, first compound 0.03 µM) was 48.4% and the viability, T/C (second compound 10 µM, first compound 0.0949 µM) was 47.2%. The viability, T/C (second compound 10 µM, first compound 0.3 µM) was 39.8%, the viability, T/C (second compound 10 µM, first compound 0.949 µM) was 24.1% and the viability, T/C (second compound 10 µM, first compound 3 µM) was 9.32%.
With `Nc1ccccc1NC(=O)c1ccc(CNC(=O)OCc2cccnc2)cc1` + CN1CCN(c2cc(C(=O)Nc3cc4cc(-c5cnn(C)c5)ccc4cn3)ccn2)CC1 the IC50 (second compound 0.0316 µM) was 6960 nM, the IC50 (second compound 0.1 µM) was 3000 nM and the IC50 (second compound 0.316 µM) was < 31.6 nM. For the same molecule, the IC50 (second compound 1 µM) was < 31.6 nM, the IC50 (second compound 3.16 µM) was < 31.6 nM and the IC50 (second compound 10 µM) was < 31.6 nM. For the same molecule, the viability, T/C [1] was 92.1%, the viability, T/C [2] was 92.3% and the viability, T/C [3] was 93.6%. For the same molecule, the viability, T/C [4] was 99%, the viability, T/C [5] was 63.5% and the viability, T/C [6] was 43.8%. For the same molecule, the viability, T/C [7] was 79%, the viability, T/C [8] was 75.9% and the viability, T/C [9] was 80%. For the same molecule, the viability, T/C [10] was 78.7%, the viability, T/C [11] was 48.6% and the viability, T/C [12] was 30.6%. For the same molecule, the viability, T/C [13] was 26.4%, the viability, T/C [14] was 24.6% and the viability, T/C [15] was 21.4%. The viability, T/C [16] was 21.8%, the viability, T/C [17] was 17.1% and the viability, T/C [18] was 16.8%. For the same molecule, the viability, T/C [19] was 3.43%, the viability, T/C [20] was 3.41% and the viability, T/C [21] was 4.13%. It also gave a viability, T/C [22] of 2.18%, a viability, T/C [23] of 2.06% and a viability, T/C [24] of 0.81%. The viability, T/C [25] was 3.66%, the viability, T/C [26] was 5.59% and the viability, T/C [27] was 6.21%. For the same molecule, the viability, T/C [28] was 4.43%, the viability, T/C [29] was 2.9% and the viability, T/C [30] was 3.42%. The viability, T/C [31] was 3.69%, the viability, T/C [32] was 4.56% and the viability, T/C [33] was 5.4%. For the same molecule, the viability, T/C [34] was 4.41%, the viability, T/C [35] was 4.37% and the viability, T/C [36] was 2.69%.
For `C=C(F)C(=O)N1CCN(c2nc(OCC3CCCN3C)nc3c2CCN(c2cccc4cccc(Cl)c24)C3)CC1CC#N` (stereo unspecified) + CNC(=O)c1ccc(Nc2nc(OC3CCCC3)c3c(-c4ccc5nc(C)oc5c4)c[nH]c3n2)c(OC)c1, the IC50 (second compound 0.0316 µM) was 7910 nM, the IC50 (second compound 0.1 µM) was 31.6 nM and the IC50 (second compound 0.316 µM) was < 31.6 nM. For the same molecule, the IC50 (second compound 1 µM) was < 31.6 nM, the IC50 (second compound 3.16 µM) was < 31.6 nM and the IC50 (second compound 10 µM) was < 31.6 nM. The viability, T/C [1] was 69.7%, the viability, T/C [2] was 49.6% and the viability, T/C [3] was 52.8%. It also gave a viability, T/C [4] of 78%, a viability, T/C [5] of 85.2% and a viability, T/C [6] of 17.7%. The viability, T/C [7] was 47.7%, the viability, T/C [8] was 40.4% and the viability, T/C [9] was 39.6%. The viability, T/C [10] was 48.5%, the viability, T/C [11] was 64% and the viability, T/C [12] was 9.35%. For the same molecule, the viability, T/C [13] was 36.1%, the viability, T/C [14] was 28.4% and the viability, T/C [15] was 32.9%. The viability, T/C [16] was 33.4%, the viability, T/C [17] was 45.2% and the viability, T/C [18] was 1.42%. It also gave a viability, T/C [19] of 25.8%, a viability, T/C [20] of 22% and a viability, T/C [21] of 25.6%. It also gave a viability, T/C [22] of 27.8%, a viability, T/C [23] of 31% and a viability, T/C [24] of 0.63%. For the same molecule, the viability, T/C [25] was 26.2%, the viability, T/C [26] was 20.6% and the viability, T/C [27] was 22.1%. It also gave a viability, T/C [28] of 23.6%, a viability, T/C [29] of 28.9% and a viability, T/C [30] of 0.56%. For the same molecule, the viability, T/C [31] was 23.2%, the viability, T/C [32] was 20.8% and the viability, T/C [33] was 21.2%. For the same molecule, the viability, T/C [34] was 28.3%, the viability, T/C [35] was 24.8% and the viability, T/C [36] was 0.31%.
